Here are results for 23 compounds from patent US20090247559A1 (Exelixis, Inc., priority 2007, published 2009).

One test deals with CK2 (Homo sapiens, UniProt P68400). The test is described as follows: CK2 inhibition, biochemical chemiluminescence holoenzyme assay (Kinase Glo, IC50 determination). The following applies: Table 1 activity class; symbol given only if active; read-out: CK2 IC50 (Activity C). The essentials:
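Holoenzyme CK2 assay; compounds pre-incubated with substrate and enzyme, then reacted 150 min at 24-27° C. Remaining ATP measured as luminescence with Kinase Glo, and IC50 derived from the signal.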
(In general: Kinase-Glo measures the ATP left after a reaction by luminescence.)

Test [1] has as its target PIM (PIM-1, PIM-2, and/or PIM-3). The test is described as follows: PIM-1, PIM-2 and PIM-3 inhibition, biochemical chemiluminescence assays (Kinase Glo, IC50 determination). The following applies: Table 1 activity class; PIM refers to PIM-1, PIM-2, and/or PIM-3; read-out: PIM IC50 (Activity B).

The structures appear in SMILES notation.

CK2, sequence (P68400 whole entry): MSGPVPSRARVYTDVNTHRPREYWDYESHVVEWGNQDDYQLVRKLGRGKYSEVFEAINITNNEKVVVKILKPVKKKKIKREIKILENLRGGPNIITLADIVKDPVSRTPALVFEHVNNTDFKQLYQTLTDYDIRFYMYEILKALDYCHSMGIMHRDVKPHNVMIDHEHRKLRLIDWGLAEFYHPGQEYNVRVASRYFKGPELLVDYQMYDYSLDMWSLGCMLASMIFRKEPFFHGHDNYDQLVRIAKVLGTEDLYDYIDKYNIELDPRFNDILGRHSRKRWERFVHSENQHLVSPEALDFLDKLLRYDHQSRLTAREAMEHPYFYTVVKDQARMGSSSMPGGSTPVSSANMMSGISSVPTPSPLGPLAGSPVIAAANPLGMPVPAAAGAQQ
CK2, sequence (P67870 whole entry partner): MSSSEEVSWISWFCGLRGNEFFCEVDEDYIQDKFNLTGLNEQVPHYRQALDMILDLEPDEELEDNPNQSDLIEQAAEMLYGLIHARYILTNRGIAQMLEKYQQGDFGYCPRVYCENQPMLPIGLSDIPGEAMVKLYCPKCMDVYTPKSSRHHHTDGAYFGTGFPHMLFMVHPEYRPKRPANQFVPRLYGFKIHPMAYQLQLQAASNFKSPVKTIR

The term IC50 denotes the point on the concentration scale where inhibition reaches its midpoint. On to `CN1CCN(CC(C)(C)NCc2nc3c(oc4ccc(Br)cc43)c(=O)[nH]2)CC1` [Compound 212, 8-bromo-2-({[1,1-dimethyl-2-(4-methylpiperazin-1-yl)ethyl]amino}methyl)[1]benzofuro[3,2-d]pyrimidin-4(3H)-one], for which the IC50 (at CK2; in test [1]) was below 10 µM in each case.
On to `O=c1[nH]c(NC2CCNCC2)nc2c1oc1ccc(Br)cc12` [Compound 213, 8-bromo-2-(piperidin-4-ylamino)[1]benzofuro[3,2-d]pyrimidin-4(3H)-one], for which the IC50 (at CK2; in test [1]) was below 10 µM in each case.
For the compound `CC(C)(C)OC(=O)NC1CCC(c2nc3c(oc4ccc(Br)cc43)c(=O)[nH]2)CC1` (stereo not shown) [Compound 222, 1,1-Dimethylethyl [4-(8-bromo-4-oxo-3,4-dihydro[1]benzofuro[3,2-d]pyrimidin-2-yl)cyclohexyl]carbamate], the IC50 (at CK2; in test [1]) was below 10 µM throughout.
`CN(C)CCN1CCN(c2nc3c(oc4ccc(Br)cc43)c(=O)[nH]2)CC1` [Compound 227, 8-bromo-2-{4-[2-(dimethylamino)ethyl]piperazin-1-yl}[1]benzofuro[3,2-d]pyrimidin-4(3H)-one]: the IC50 (at CK2; in test [1]) was below 10 µM each time.
For the compound `CN1CCC(N2CCN(c3nc4c(oc5ccc(Br)cc54)c(=O)[nH]3)CC2)CC1` [Compound 228, 8-bromo-2-[4-(1-methylpiperidin-4-yl)piperazin-1-yl][1]benzofuro[3,2-d]pyrimidin-4(3H)-one], the IC50 (on CK2; in test [1]) was below 10 µM in each case.
With `O=c1[nH]c(CN2C[C@H]3CNC[C@H]3C2)nc2c1oc1ccc(Br)cc12` [Compound 229, 8-bromo-2-[(3aR,6aS)-hexahydropyrrolo[3,4-c]pyrrol-2(1H)-ylmethyl][1]benzofuro[3,2-d]pyrimidin-4(3H)-one], the IC50 (at CK2; in test [1]) was below 10 µM throughout.
With `O=C(C1CCOC1)N1CCC(c2nc3c(oc4ccc(Br)cc43)c(=O)[nH]2)CC1` (stereo not shown) [Compound 233, 8-bromo-2-[1-(tetrahydrofuran-3-ylcarbonyl)piperidin-4-yl][1]benzofuro[3,2-d]pyrimidin-4(3H)-one], the IC50 (on CK2; in test [1]) was below 10 µM in each case.
As for `O=C(c1ccccc1)N1CCC(c2nc3c(oc4ccc(Br)cc43)c(=O)[nH]2)CC1` [Compound 234, 8-bromo-2-[1-(phenylcarbonyl)piperidin-4-yl][1]benzofuro[3,2-d]pyrimidin-4(3H)-one], the IC50 (on CK2; in test [1]) was below 10 µM in each case.
For the compound `O=C(c1ccncc1)N1CCC(c2nc3c(oc4ccc(Br)cc43)c(=O)[nH]2)CC1` [Compound 236, 8-bromo-2-[1-(pyridin-4-ylcarbonyl)piperidin-4-yl][1]benzofuro[3,2-d]pyrimidin-4(3H)-one], the IC50 (at CK2; in test [1]) was below 10 µM in each case.
For the compound `O=C(Cc1ccccc1)N1CCC(c2nc3c(oc4ccc(Br)cc43)c(=O)[nH]2)CC1` [Compound 237, 8-bromo-2-[1-(phenylacetyl)piperidin-4-yl][1]benzofuro[3,2-d]pyrimidin-4(3H)-one], the IC50 (on CK2; in test [1]) was below 10 µM throughout.
On to `O=c1[nH]c(CN2CCC(c3ccccc3)CC2)nc2c1oc1ccc(Br)cc12` [Compound 238, 8-bromo-2-[(4-phenylpiperidin-1-yl)methyl][1]benzofuro[3,2-d]pyrimidin-4(3H)-one], for which the IC50 (on CK2; in test [1]) was below 10 µM throughout.
Regarding `O=c1[nH]c(CNCc2ccccc2)nc2c1oc1ccc(Br)cc12` [Compound 239, 8-bromo-2-{[(phenylmethyl)amino]methyl}[1]benzofuro[3,2-d]pyrimidin-4(3H)-one], the IC50 (on CK2; in test [1]) was below 10 µM throughout.
On to `O=c1[nH]c(CN2CCN(c3cccnc3)CC2)nc2c1oc1ccc(Br)cc12` [Compound 240, 8-bromo-2-[(4-pyridin-3-ylpiperazin-1-yl)methyl][1]benzofuro[3,2-d]pyrimidin-4(3H)-one], for which the IC50 (on CK2; in test [1]) was below 10 µM throughout.
On to `O=c1[nH]c(CNC2CCc3ccccc32)nc2c1oc1ccc(Br)cc12` (stereo not shown) [Compound 241, 8-bromo-2-[(2,3-dihydro-1H-inden-1-ylamino)methyl][1]benzofuro[3,2-d]pyrimidin-4(3H)-one], for which the IC50 (at CK2; in test [1]) was below 10 µM in each case.
With `Nc1ncc(Cl)c(-c2nc3c(oc4ccc(Br)cc43)c(=O)[nH]2)n1` [Compound 243, 2-(2-amino-5-chloropyrimidin-4-yl)-8-bromo[1]benzofuro[3,2-d]pyrimidin-4(3H)-one], the IC50 (at CK2; in test [1]) was below 10 µM each time.
As to `CN1CCC(Cc2nc3c(oc4ccc(Br)cc43)c(=O)[nH]2)CC1` [Compound 244, 8-bromo-2-[(1-methylpiperidin-4-yl)methyl][1]benzofuro[3,2-d]pyrimidin-4(3H)-one], the IC50 (at CK2; in test [1]) was below 10 µM in each case.
For the compound `CCN(CC)CC(=O)N1CCN(c2nc3c(oc4ccc(Br)cc43)c(=O)[nH]2)CC1` [Compound 245, 8-bromo-2-[4-(N,N-diethylglycyl)piperazin-1-yl][1]benzofuro[3,2-d]pyrimidin-4(3H)-one], the IC50 (at CK2; in test [1]) was below 10 µM throughout.
Take `CN(C)CCCN1CCN(c2nc3c(oc4ccc(Br)cc43)c(=O)[nH]2)CC1` [Compound 246, 8-bromo-2-{4-[3-(dimethylamino)propyl]piperazin-1-yl}[1]benzofuro[3,2-d]pyrimidin-4(3H)-one]: the IC50 (at CK2; in test [1]) was below 10 µM each time.
For `O=c1[nH]c(CN2CCN(CCO)CC2)nc2c1oc1ccc(Br)cc12` [Compound 247, 8-bromo-2-{[4-(2-hydroxyethyl)piperazin-1-yl]methyl}[1]benzofuro[3,2-d]pyrimidin-4(3H)-one], the IC50 (on CK2; in test [1]) was below 10 µM in each case.
With `O=C(Nc1ccc(-c2nc3c(oc4ccc(Br)cc43)c(=O)[nH]2)c(Cl)c1)c1ccccc1` [Compound 249, N-[4-(8-bromo-4-oxo-3,4-dihydro[1]benzofuro[3,2-d]pyrimidin-2-yl)-3-chlorophenyl]benzamide], the IC50 (on CK2; in test [1]) was below 10 µM each time.
`O=C(Nc1ccc(-c2nc3c(oc4ccc(Br)cc43)c(=O)[nH]2)c(Cl)c1)C1CCCCC1` [Compound 250, N-[4-(8-bromo-4-oxo-3,4-dihydro[1]benzofuro[3,2-d]pyrimidin-2-yl)-3-chlorophenyl]cyclohexanecarboxamide]: the IC50 (on CK2; in test [1]) was below 10 µM in each case.
On to `O=C(Nc1ccc(-c2nc3c(oc4ccc(Br)cc43)c(=O)[nH]2)c(Cl)c1)C1CCCC1` [Compound 251, N-[4-(8-bromo-4-oxo-3,4-dihydro[1]benzofuro[3,2-d]pyrimidin-2-yl)-3-chlorophenyl]cyclopentanecarboxamide], for which the IC50 (on CK2; in test [1]) was below 10 µM throughout.
`O=c1[nH]c(CN2CCC(Cc3ccccc3)CC2)nc2c1oc1ccc(Br)cc12` [Compound 253, 8-bromo-2-{[4-(phenylmethyl)piperidin-1-yl]methyl}[1]benzofuro[3,2-d]pyrimidin-4(3H)-one]: the IC50 (at CK2; in test [1]) was below 10 µM in each case.
